Values after ≈ are worked out from the molar mass of the structure shown.
What was measured:
M. tuberculosis H37Rv [1] = experiment: microbe, parasite or virus in culture; format: cell-based, Mycobacterium tuberculosis; details: for MIC: Mycobacterium tuberculosis, H37RV, read-out: MIC for H37Rv; for MIC for H37Rv: M. tuberculosis H37Rv parental strain
M. tuberculosis H37Rv [2] = format: in vivo, Mycobacterium tuberculosis; details: 10 mg/kg oral gavage daily (5 days per week), BALB/c mice
[3] = test system: M. tuberculosis strains H37Rv, V4207, V2475, KZN494, TF274, R506; details: MDR strains V2475 and KZN494; cited from earlier work

Compound | MIC (M. tuberculosis H37Rv [1]) | further results
NCC[C@H](O)C(=O)N[C@@H]1C[C@H](N)[C@@H](O[C@H]2O[C@H](CN)[C@@H](O)[C@H](O)[C@H]2O)[C@H](O)[C@H]1O[C@H]1O[C@H](CO)[C@@H](O)[C@H](N)[C@H]1O [Amikacin] | 1 µg/mL (≈ 1.71 µM) | 
CC[C@@H](CO)NCCN[C@@H](CC)CO [Ethambutol] | 1 µg/mL (≈ 4.89 µM) | 
NNC(=O)c1ccncc1 [Isoniazid] | 0.04 µg/mL (≈ 0.292 µM) | Mean lung CFU counts (standard deviation), Day 7 (M. tuberculosis H37Rv [2]): 5.508 (0.124) log10 CFU/lung; Mean lung CFU counts (standard deviation), Day 14 (M. tuberculosis H37Rv [2]): 5.266 (0.089) log10 CFU/lung; Mean lung CFU counts (standard deviation), Day 28 (M. tuberculosis H37Rv [2]): 4.561 (0.088) log10 CFU/lung; Susceptibility of the MDR strains [3]: resistant
NC[C@H]1O[C@H](O[C@H]2[C@H](O)[C@@H](O[C@H]3O[C@H](CO)[C@@H](O)[C@H](N)[C@H]3O)[C@H](N)C[C@@H]2N)[C@H](O)[C@@H](O)[C@@H]1O [Kanamycin] |  | MIC for H37Rv (M. tuberculosis H37Rv [1]): 2 µg/mL
C[C@H]1COc2c(N3CCN(C)CC3)c(F)cc3c(=O)c(C(=O)O)cn1c23 [Levofloxacin] | 0.25 µg/mL (≈ 0.692 µM) | 
COc1c(N2C[C@@H]3CCCN[C@@H]3C2)c(F)cc2c(=O)c(C(=O)O)cn(C3CC3)c12 [Moxifloxacin] | 0.0625 to 0.125 µg/mL (≈ 0.156 to 0.311 µM) | 
CO[C@H]1/C=C/O[C@@]2(C)Oc3c(C)c(O)c4c(O)c(c(/C=N/N5CCN(C)CC5)c(O)c4c3C2=O)NC(=O)/C(C)=C\C=C\[C@H](C)[C@H](O)[C@@H](C)[C@@H](O)[C@@H](C)[C@H](OC(C)=O)[C@@H]1C [Rifampin] | 0.125 µg/mL (≈ 0.152 µM) | Susceptibility of the MDR strains [3]: resistant
CC(C)=CCC/C(C)=C/CNCCNC1C2CC3CC(C2)CC1C3 (centres unmarked) [SQ109] | 0.25 µg/mL (≈ 0.756 µM) | 
Capreomycin |  | MIC for H37Rv (M. tuberculosis H37Rv [1]): 1 µg/mL

Reference: paper PMC3909880 (Nature communications, 2013)
